Reference: patent US10780090B2, “Heteroaryl compounds useful as inhibitors of SUMO activating enzyme” (Millennium Pharmaceuticals, Inc., priority 2014, dated 2020)

Molecular target: recombinant human SAE enzyme (Homo sapiens (Human), UniProt Q9UBT2)
Test: SAE HTRF enzyme assay
Format: biochemical
Details: for Percent Inhibition: SAE inhibition at compound concentration 0.111 μM; for IC50: SAE inhibition, class symbols, legend in nM
Summary of the method: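 This HTRF format monitors Sumo-Flag–Ubc9-GST thioester formation catalysed by 0.11 nM human SAE with 0.5 μM ATP over 105 min at 24° C. Inhibition is expressed at a single concentration or as IC50.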

recombinant human SAE enzyme, sequence (Q9UBT2 whole entry): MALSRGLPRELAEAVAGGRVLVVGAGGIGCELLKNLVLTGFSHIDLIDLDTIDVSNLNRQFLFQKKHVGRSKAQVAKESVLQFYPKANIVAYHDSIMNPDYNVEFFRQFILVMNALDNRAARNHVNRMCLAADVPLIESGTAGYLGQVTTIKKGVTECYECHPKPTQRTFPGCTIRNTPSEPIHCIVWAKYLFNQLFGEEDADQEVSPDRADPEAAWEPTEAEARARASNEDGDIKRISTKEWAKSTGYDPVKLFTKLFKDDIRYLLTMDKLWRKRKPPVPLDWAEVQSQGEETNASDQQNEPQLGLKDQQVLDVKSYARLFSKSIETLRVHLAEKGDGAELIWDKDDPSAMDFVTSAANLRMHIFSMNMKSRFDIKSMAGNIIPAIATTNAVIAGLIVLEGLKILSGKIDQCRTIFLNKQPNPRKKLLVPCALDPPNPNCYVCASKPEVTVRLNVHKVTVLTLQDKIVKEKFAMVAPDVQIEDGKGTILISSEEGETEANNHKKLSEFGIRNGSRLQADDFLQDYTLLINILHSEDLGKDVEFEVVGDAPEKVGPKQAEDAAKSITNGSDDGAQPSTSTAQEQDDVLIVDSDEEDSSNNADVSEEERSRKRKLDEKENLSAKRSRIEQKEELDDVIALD
recombinant human SAE enzyme, sequence (Q9UBE0 whole entry partner): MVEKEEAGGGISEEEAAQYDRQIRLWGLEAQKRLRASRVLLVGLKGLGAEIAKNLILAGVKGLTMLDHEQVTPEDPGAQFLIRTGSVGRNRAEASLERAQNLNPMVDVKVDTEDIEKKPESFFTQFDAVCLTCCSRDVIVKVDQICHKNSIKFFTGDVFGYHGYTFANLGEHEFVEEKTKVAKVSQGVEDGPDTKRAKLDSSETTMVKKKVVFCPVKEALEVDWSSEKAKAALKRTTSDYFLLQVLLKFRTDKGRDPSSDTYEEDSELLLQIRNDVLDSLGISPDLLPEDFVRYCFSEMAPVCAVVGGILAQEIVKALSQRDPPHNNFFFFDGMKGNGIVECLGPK

Compound | Percent Inhibition | IC50
C[C@@]1(c2csc(C(=O)c3cncnc3N[C@@H]3C[C@H](COS(N)(=O)=O)[C@@H](O)C3)c2)OCCc2ccc(Cl)cc21 (mixture of isomers) [I-317, [(1R,2S,4R)-4-{[5-({4-[(1R)-7-chloro-1-methyl-3,4-dihydro-1H-isochromen-1-yl]-2-thienyl}carbonyl)pyrimidin-4-yl]amino}-2-hydroxycyclopentyl]methyl sulfamate and [(1R,2S,4R)-4-{[5-({4-[(1S)-7-chloro-1-methyl-3,4-dihydro-1H-isochromen-1-yl]-2-thienyl}carbonyl)pyrimidin-4-yl]amino}-2-hydroxycyclopentyl]methyl sulfamate] | 97% | < 10 nM
C[C@@]1(c2csc(C(=O)c3cncnc3N[C@@H]3C[C@H](COS(N)(=O)=O)[C@@H](O)C3)c2)NCCc2ccccc21.C[C@]1(c2csc(C(=O)c3cncnc3N[C@@H]3C[C@H](COS(N)(=O)=O)[C@@H](O)C3)c2)NCCc2ccccc21 (mixture of isomers) [I-318, [(1R,2S,4R)-2-hydroxy-4-{[5-({4-[(1R)-1-methyl-1,2,3,4-tetrahydroisoquinolin-1-yl]-2-thienyl}carbonyl)pyrimidin-4-yl]amino}cyclopentyl]methyl sulfamate and [(1R,2S,4R)-2-hydroxy-4-{[5-({4-[(1S)-1-methyl-1,2,3,4-tetrahydroisoquinolin-1-yl]-2-thienyl}carbonyl)pyrimidin-4-yl]amino}cyclopentyl]methyl sulfamate] | 95% | < 10 nM
NS(=O)(=O)OC[C@H]1C[C@@H](Nc2ncncc2C(=O)c2cc([C@@H]3NCCCc4ccccc43)c(Cl)s2)C[C@@H]1O (mixture of isomers) [I-319, [(1R,2S,4R)-4-{[5-({5-chloro-4-[(1R)-2,3,4,5-tetrahydro-1H-2-benzazepin-1-yl]-2-thienyl}carbonyl)pyrimidin-4-yl]amino}-2-hydroxycyclopentyl]methyl sulfamate and [(1R,2S,4R)-4-{[5-({5-chloro-4-[(1S)-2,3,4,5-tetrahydro-1H-2-benzazepin-1-yl]-2-thienyl}carbonyl)pyrimidin-4-yl]amino}-2-hydroxycyclopentyl]methyl sulfamate] | 94% | < 10 nM
NS(=O)(=O)OC[C@H]1C[C@@H](Nc2ncncc2C(=O)c2cc([C@@H]3SCCc4ccc(Cl)cc43)cs2)C[C@@H]1O.NS(=O)(=O)OC[C@H]1C[C@@H](Nc2ncncc2C(=O)c2cc([C@H]3SCCc4ccc(Cl)cc43)cs2)C[C@@H]1O (mixture of isomers) [I-320, [(1R,2S,4R)-4-{[5-({4-[(1R)-7-chloro-3,4-dihydro-1H-isothiochromen-1-yl]-2-thienyl}carbonyl)pyrimidin-4-yl]amino}-2-hydroxycyclopentyl]methyl sulfamate and [(1R,2S,4R)-4-{[5-({4-[(1S)-7-chloro-3,4-dihydro-1H-isothiochromen-1-yl]-2-thienyl}carbonyl)pyrimidin-4-yl]amino}-2-hydroxycyclopentyl]methyl sulfamate] | 92% | 10 to 100 nM
C[C@@]1(c2csc(C(=O)c3cncnc3N[C@@H]3C[C@H](COS(N)(=O)=O)[C@@H](O)C3)c2)NCCc2ccc(Cl)cc21 (mixture of isomers) [I-321, [(1R,2S,4R)-4-{[5-({4-[(1R)-7-chloro-1-methyl-1,2,3,4-tetrahydroisoquinolin-1-yl]-2-thienyl}carbonyl)pyrimidin-4-yl]amino}-2-hydroxycyclopentyl]methyl sulfamate and [(1R,2S,4R)-4-{[5-({4-[(1S)-7-chloro-1-methyl-1,2,3,4-tetrahydroisoquinolin-1-yl]-2-thienyl}carbonyl)pyrimidin-4-yl]amino}-2-hydroxycyclopentyl]methyl sulfamate] | 94% | < 10 nM
CN1Cc2cc(Cl)ccc2[C@@H]1c1csc(C(=O)c2cncnc2N[C@@H]2C[C@H](COS(N)(=O)=O)[C@@H](O)C2)c1 (mixture of isomers) [I-322, [(1R,2S,4R)-4-{[5-({4-[(1R)-5-chloro-2-methyl-2,3-dihydro-1H-isoindol-1-yl]-2-thienyl}carbonyl)pyrimidin-4-yl]amino}-2-hydroxycyclopentyl]methyl sulfamate and [(1R,2S,4R)-4-{[5-({4-[(1S)-5-chloro-2-methyl-2,3-dihydro-1H-isoindol-1-yl]-2-thienyl}carbonyl)pyrimidin-4-yl]amino}-2-hydroxycyclopentyl]methyl sulfamate] | 92% | 10 to 100 nM
NS(=O)(=O)OC[C@H]1C[C@@H](Nc2ncncc2C(=O)c2cc([C@@H]3OCCc4cnc(Cl)cc43)c(Cl)s2)C[C@@H]1O (mixture of isomers) [I-323, [(1R,2S,4R)-4-{[5-({5-chloro-4-[(1R)-7-chloro-3,4-dihydro-1H-pyrano[4,3-c]pyridin-1-yl]-2-thienyl}carbonyl)pyrimidin-4-yl]amino}-2-hydroxycyclopentyl]methyl sulfamate and [(1R,2S,4R)-4-{[5-({5-chloro-4-[(1S)-7-chloro-3,4-dihydro-1H-pyrano[4,3-c]pyridin-1-yl]-2-thienyl}carbonyl)pyrimidin-4-yl]amino}-2-hydroxycyclopentyl]methyl sulfamate] | 90% | 10 to 100 nM
N#Cc1sc(C(=O)c2cncnc2N[C@@H]2C[C@H](COS(N)(=O)=O)[C@@H](O)C2)cc1[C@@H]1OCCc2ccccc21 (mixture of isomers) [I-324, [(1R,2S,4R)-4-{[5-({5-cyano-4-[(1R)-3,4-dihydro-1H-isochromen-1-yl]-2-thienyl}carbonyl)pyrimidin-4-yl]amino}-2-hydroxycyclopentyl]methyl sulfamate and [(1R,2S,4R)-4-{[5-({5-cyano-4-[(1S)-3,4-dihydro-1H-isochromen-1-yl]-2-thienyl}carbonyl)pyrimidin-4-yl]amino}-2-hydroxycyclopentyl]methyl sulfamate] | 91% | 10 to 100 nM
NS(=O)(=O)OC[C@H]1C[C@@H](Nc2ncncc2C(=O)c2ccc([C@@H]3OCCc4c(Cl)cccc43)s2)C[C@@H]1O (mixture of isomers) [I-325, [(1R,2S,4R)-4-{[5-({5-[(1R)-5-chloro-3,4-dihydro-1H-isochromen-1-yl]-2-thienyl}carbonyl)pyrimidin-4-yl]amino}-2-hydroxycyclopentyl]methyl sulfamate and [(1R,2S,4R)-4-{[5-({5-[(1S)-5-chloro-3,4-dihydro-1H-isochromen-1-yl]-2-thienyl}carbonyl)pyrimidin-4-yl]amino}-2-hydroxycyclopentyl]methyl sulfamate] | 60% | 10 to 100 nM
NS(=O)(=O)OC[C@H]1C[C@@H](Nc2ncncc2C(=O)c2cc([C@@H]3OC(=O)c4ccc(Cl)cc43)c(Cl)s2)C[C@@H]1O (mixture of isomers) [I-327, [(1R,2S,4R)-4-{[5-({5-chloro-4-[(1R)-6-chloro-3-oxo-1,3-dihydro-2-benzofuran-1-yl]-2-thienyl}carbonyl)pyrimidin-4-yl]amino}-2-hydroxycyclopentyl]methyl sulfamate and [(1R,2S,4R)-4-{[5-({5-chloro-4-[(1S)-6-chloro-3-oxo-1,3-dihydro-2-benzofuran-1-yl]-2-thienyl}carbonyl)pyrimidin-4-yl]amino}-2-hydroxycyclopentyl]methyl sulfamate] | 51% | 100 to 1000 nM
Cc1sc(C(=O)c2cncnc2N[C@@H]2C[C@H](COS(N)(=O)=O)[C@@H](O)C2)cc1[C@@H]1OCCc2ccc(CN(C)C)cc21 (mixture of isomers) [I-329, [(1R,2S,4R)-4-({5-[(4-{(1R)-7-[(dimethylamino)methyl]-3,4-dihydro-1H-isochromen-1-yl}-5-methyl-2-thienyl)carbonyl]pyrimidin-4-yl}amino)-2-hydroxycyclopentyl]methyl sulfamate and [(1R,2S,4R)-4-({5-[(4-{(1S)-7-[(dimethylamino)methyl]-3,4-dihydro-1H-isochromen-1-yl}-5-methyl-2-thienyl)carbonyl]pyrimidin-4-yl}amino)-2-hydroxycyclopentyl]methyl sulfamate] | 36% | 100 to 1000 nM
Cc1cc2n(n1)CCO[C@H]2c1csc(C(=O)c2cncnc2N[C@@H]2C[C@H](COS(N)(=O)=O)[C@@H](O)C2)c1 (mixture of isomers) [I-332, [(1R,2S,4R)-2-hydroxy-4-{[5-({4-[(4S)-2-methyl-6,7-dihydro-4H-pyrazolo[5,1-c][1,4]oxazin-4-yl]-2-thienyl}carbonyl)pyrimidin-4-yl]amino}cyclopentyl]methyl sulfamate and [(1R,2S,4R)-2-hydroxy-4-{[5-({4-[(4R)-2-methyl-6,7-dihydro-4H-pyrazolo[5,1-c][1,4]oxazin-4-yl]-2-thienyl}carbonyl)pyrimidin-4-yl]amino}cyclopentyl]methyl sulfamate] | 25% | 100 to 1000 nM
Cc1cnn2c1[C@H](c1csc(C(=O)c3cncnc3N[C@@H]3C[C@H](COS(N)(=O)=O)[C@@H](O)C3)c1)OCC2 (mixture of isomers) [I-333, [(1R,2S,4R)-2-hydroxy-4-{[5-({4-[(4S)-3-methyl-6,7-dihydro-4H-pyrazolo[5,1-c][1,4]oxazin-4-yl]-2-thienyl}carbonyl)pyrimidin-4-yl]amino}cyclopentyl]methyl sulfamate and [(1R,2S,4R)-2-hydroxy-4-{[5-({4-[(4R)-3-methyl-6,7-dihydro-4H-pyrazolo[5,1-c][1,4]oxazin-4-yl]-2-thienyl}carbonyl)pyrimidin-4-yl]amino}cyclopentyl]methyl sulfamate] | 15% | 100 to 1000 nM
